Residues, ends and D or L forms follow the SMILES beside them. *: point of attachment. Palmitoyl = CCCCCCCCCCCCCCCC(=O)*
Experiment: In vivo skin penetration study #2 (Tape Stripping method), magnetic vs non-magnetic applicator
Parameters: species or system human
Settings: for amount of Pal-KTTKS recovered, Sum 2-10 / amount of Pal-KTTKS recovered, Sum 6-10: in ng (unit assumed)
Procedure: This method provides a suitable means of measuring the amount of skin care active present in skin, and comparing active versus passive application of the skin care active. Two identical rectangular areas of 15 cm^2 are marked on the volar forearms of volunteers. A measured dose (approximately 30 mg) of the Pal-KTTKS (SEQ ID NO: 1) formulation is applied to the delineated areas using a screw actuated syringe. Active application is carried out on one of the delineated areas using the three-quarter profile of a purpose made applicator (e.g., an applicator presenting one of the magnetic arrays set forth in Table 2). Passive application is accomplished on the other delineated area using the tip of a finger in a sweeping motion identical to that of the active application. The formulation is spread evenly across the entire delineated region using a sweeping motion with a fixed speed of approximately 23 cm/s to […]. The application period is 30 seconds during which time visual inspection is used to ensure even distribution and absorption of the formulation by skin. The application area is then left uncovered for a further 30 minutes to ensure complete absorption. Tape strip samples may be collected and/or analyzed immediately after the complete absorption is ensured or after a waiting period (e.g., after multiple applications of the formulation over multiple hours or days).
The tape stripping procedure is carried out using 10 commercial pre-cut 22.1 mm tape stripping adhesive discs (e.g., D-SQUAME, available from Cuderm Corporation or equivalent) with an adhesive area of 3.8 cm^2. The 10 tape strips are applied sequentially to the same sampling site, which ideally enables each tape strip to obtain a sample from deeper within the stratum corneum than the tape strip that preceded it. A 22.1 mm diameter circular region is marked at the center of the application area. A tape stripping adhesive disc is placed over the marked area and even pressure applied using, for example, a neoprene roller, rolled ten times over the adhesive disc. The adhesive disc is removed from the skin surface in a single pulling motion using manual tweezers. To ensure even removal of the skin sample, subsequent discs are removed in a “north, south, east and west” orientation, which is within the skill of the ordinary artisan. Each adhesive disc is non-destructively analysed for protein content using a suitable instrument (e.g., SquameScan™ 850 instrument commercially available from Heiland Electronics Wetzlar, Germany, or equivalent). The adhesive disc is then immediately placed into a glass vial containing extraction solvent in preparation for subsequent analysis. Solvent extractions are conducted on each tape strip using conventional extraction methods, which are well known to those of ordinary skill in the art, and measuring the amount of Pal-KTTKS (SEQ ID NO: 1) present in the extract, for example, by high performance liquid chromatography (“HPLC”) and/or mass spectrometry.
The procedure is repeated for the remaining nine strips. An additional strip is obtained from outside the area of application of the skin care formulation to serve as a blank sample. The amount of active is normalized to the amount of protein measured.
This in vivo skin penetration study compares the penetration of Pal-KTTKS (SEQ ID NO: 1) into skin when a Pal-KTTKS (SEQ ID NO: 1)-containing composition is applied with a magnetic applicator (active application) versus application with a non-magnetic applicator (passive application). In this example, 5 test subjects (A to E in Tables 13 and 14) were selected. 18 mg of a composition containing Pal-KTTKS (SEQ ID NO: 1) (Olay® Deep Wrinkle Treatment® brand skin cream available from the Procter & Gamble Company, Cincinnati, Ohio) was applied to two 3 cm×3 cm test sites on the inner forearms of each test subject using the applicator illustrated in FIG. 1C. The applicator used for active application included Array #8 from Table 2. […]

[1] = active, array #8, Avg of all test sites
[2] = active, array #8, subject A site 1
[3] = active, array #8, subject A site 2
[4] = active, array #8, subject B site 1
[5] = active, array #8, subject B site 2
[6] = active, array #8, subject C site 1
[7] = active, array #8, subject C site 2
[8] = active, array #8, subject D site 1
[9] = active, array #8, subject D site 2
[10] = active, array #8, subject E site 1
[11] = active, array #8, subject E site 2

CCCCCCCCCCCCCCCC(=O)N[C@@H](CCCCN)C(=O)N[C@H](C(=O)N[C@H](C(=O)N[C@@H](CCCCN)C(=O)N[C@@H](CO)C(=O)O)[C@@H](C)O)[C@@H](C)O [Pal-KTTKS, palmitoyl-lysine-threonine-threonine-lysine-serine] (Palmitoyl-KTTKS-OH; C-terminus assumed)
amount of Pal-KTTKS recovered, Sum 2-10 [1]: 42.02
amount of Pal-KTTKS recovered, Sum 6-10 [1]: 22.74
amount of Pal-KTTKS recovered, Sum 2-10 [2]: 83.43
amount of Pal-KTTKS recovered, Sum 6-10 [2]: 53.81
amount of Pal-KTTKS recovered, Sum 2-10 [3]: 40.40
amount of Pal-KTTKS recovered, Sum 6-10 [3]: 17.29
amount of Pal-KTTKS recovered, Sum 2-10 [4]: 42.67
amount of Pal-KTTKS recovered, Sum 6-10 [4]: 21.36
amount of Pal-KTTKS recovered, Sum 2-10 [5]: 36.84
amount of Pal-KTTKS recovered, Sum 6-10 [5]: 16.95
amount of Pal-KTTKS recovered, Sum 2-10 [6]: 31.64
amount of Pal-KTTKS recovered, Sum 6-10 [6]: 19.40
amount of Pal-KTTKS recovered, Sum 2-10 [7]: 90.87
amount of Pal-KTTKS recovered, Sum 6-10 [7]: 54.66
amount of Pal-KTTKS recovered, Sum 2-10 [8]: 18.10
amount of Pal-KTTKS recovered, Sum 6-10 [8]: 9.26
amount of Pal-KTTKS recovered, Sum 2-10 [9]: 18.31
amount of Pal-KTTKS recovered, Sum 6-10 [9]: 8.02
amount of Pal-KTTKS recovered, Sum 2-10 [10]: 31.17
amount of Pal-KTTKS recovered, Sum 6-10 [10]: 14.86
amount of Pal-KTTKS recovered, Sum 2-10 [11]: 26.78
amount of Pal-KTTKS recovered, Sum 6-10 [11]: 11.84
Enhancement value Strips 2-10 (active/passive) (array #8, Avg of the enhancement values of all test sites): 4.00
Enhancement value Strips 2-10 (active/passive) (array #8, subject A site 1): 1.34
Enhancement value Strips 6-10 (active/passive) (array #8, subject A site 1): 1.33
Enhancement value Strips 2-10 (active/passive) (array #8, subject A site 2): 16.52
Enhancement value Strips 2-10 (active/passive) (array #8, subject B site 1): 3.39
Enhancement value Strips 6-10 (active/passive) (array #8, subject B site 1): 18.16
Enhancement value Strips 2-10 (active/passive) (array #8, subject B site 2): 3.47
Enhancement value Strips 2-10 (active/passive) (array #8, subject C site 1): 2.23
Enhancement value Strips 6-10 (active/passive) (array #8, subject C site 1): 3.03
Enhancement value Strips 2-10 (active/passive) (array #8, subject C site 2): 1.32
Enhancement value Strips 6-10 (active/passive) (array #8, subject C site 2): 1.22
Enhancement value Strips 2-10 (active/passive) (array #8, subject D site 1): 1.72
Enhancement value Strips 6-10 (active/passive) (array #8, subject D site 1): 3.63
Enhancement value Strips 2-10 (active/passive) (array #8, subject D site 2): 2.35
Enhancement value Strips 2-10 (active/passive) (array #8, subject E site 1): 4.86
Enhancement value Strips 6-10 (active/passive) (array #8, subject E site 1): 10.70
Enhancement value Strips 2-10 (active/passive) (array #8, subject E site 2): 2.75
Enhancement value Strips 6-10 (active/passive) (array #8, subject E site 2): 6.73
amount of Pal-KTTKS recovered, Sum 2-10 (passive, Avg of all test sites): 20.55
amount of Pal-KTTKS recovered, Sum 6-10 (passive, Avg of all test sites): 10.01
amount of Pal-KTTKS recovered, Sum 2-10 (passive, subject A site 1): 62.40
amount of Pal-KTTKS recovered, Sum 6-10 (passive, subject A site 1): 40.39
amount of Pal-KTTKS recovered, Sum 2-10 (passive, subject A site 2): 2.45
amount of Pal-KTTKS recovered, Sum 6-10 (passive, subject A site 2): 0.00
amount of Pal-KTTKS recovered, Sum 2-10 (passive, subject B site 1): 12.58
amount of Pal-KTTKS recovered, Sum 6-10 (passive, subject B site 1): 2.25
amount of Pal-KTTKS recovered, Sum 2-10 (passive, subject B site 2): 10.61
amount of Pal-KTTKS recovered, Sum 6-10 (passive, subject B site 2): 1.04
amount of Pal-KTTKS recovered, Sum 2-10 (passive, subject C site 1): 14.16
amount of Pal-KTTKS recovered, Sum 6-10 (passive, subject C site 1): 5.56
amount of Pal-KTTKS recovered, Sum 2-10 (passive, subject C site 2): 68.87
amount of Pal-KTTKS recovered, Sum 6-10 (passive, subject C site 2): 43.44
amount of Pal-KTTKS recovered, Sum 2-10 (passive, subject D site 1): 10.53
amount of Pal-KTTKS recovered, Sum 6-10 (passive, subject D site 1): 3.35
amount of Pal-KTTKS recovered, Sum 2-10 (passive, subject D site 2): 7.81
amount of Pal-KTTKS recovered, Sum 6-10 (passive, subject D site 2): 0.00
amount of Pal-KTTKS recovered, Sum 2-10 (passive, subject E site 1): 6.41
amount of Pal-KTTKS recovered, Sum 6-10 (passive, subject E site 1): 1.72
amount of Pal-KTTKS recovered, Sum 2-10 (passive, subject E site 2): 9.74
amount of Pal-KTTKS recovered, Sum 6-10 (passive, subject E site 2): 2.31

Source: patent US10058495B2, “Method of making a skin care product” (The Procter & Gamble Company, priority 2014, dated 2018)
